Values of other authors as cited in patent US7270977B2, “Polypeptides for identifying fungicidally active compounds” (priority 2001, dated 2007).
Entries after “also recorded” stand apart in the source; their conditions may differ.

What was measured:
C. albicans cells = conditions: cited from earlier work; for effect on C. albicans: in words
Hansenula anomala = conditions: in words; cited from earlier work
Cryptococcus neoformans = conditions: in words; cited from earlier work
Candida guilliermondii = conditions: in words; cited from earlier work
Candida pseudotropicalis = conditions: in words; cited from earlier work
[1] = molecular target: recombinant IMPDH from Pneumocystis carinii (Pneumocystis carinii, UniProt Q12658); conditions: recombinant P. carinii IMPDH; read-out: concentration resulting in 50% inhibition of the activity of the recombinant IMPDH; cited from earlier work
Chain of recombinant IMPDH from Pneumocystis carinii (Q12658 76-529): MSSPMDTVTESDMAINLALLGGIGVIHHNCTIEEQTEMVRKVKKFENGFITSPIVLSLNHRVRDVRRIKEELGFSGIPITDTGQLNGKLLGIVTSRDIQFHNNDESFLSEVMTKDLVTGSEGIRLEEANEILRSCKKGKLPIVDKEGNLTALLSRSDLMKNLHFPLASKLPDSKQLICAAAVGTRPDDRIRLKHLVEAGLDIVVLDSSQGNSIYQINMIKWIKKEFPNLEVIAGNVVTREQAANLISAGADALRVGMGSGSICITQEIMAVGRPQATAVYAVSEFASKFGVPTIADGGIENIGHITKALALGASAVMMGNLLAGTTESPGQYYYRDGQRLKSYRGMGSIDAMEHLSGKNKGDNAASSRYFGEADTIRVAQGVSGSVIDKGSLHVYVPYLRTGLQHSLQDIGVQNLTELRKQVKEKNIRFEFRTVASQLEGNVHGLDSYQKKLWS

Candida krusei = conditions: in words; cited from earlier work
S. cerevisiae = conditions: in words; cited from earlier work

Row | Compound | effect on C. albicans (C. albicans cells) | effect on growth in vitro (Hansenula anomala) | effect on growth in vitro (Cryptococcus neoformans) | concentration inhibiting growth of C. albicans cells (C. albicans cells; wild-type cells) [µg/mL] | effect on growth in vitro (Candida guilliermondii) | effect on growth in vitro (Candida pseudotropicalis) | IC50 [1] [µM] | effect on growth in vitro (Candida krusei) | effect on growth in vitro (S. cerevisiae)
1 | NC(=O)c1ncn([C@@H]2O[C@H](CO)[C@@H](O)[C@H]2O)c1O [mizoribine] | virtually ineffective |  |  |  |  |  |  |  | 
2 | COc1c(C)c2c(c(O)c1C/C=C(\C)CCC(=O)O)C(=O)OC2 [mycophenolic acid] | inhibits in vitro the growth; also recorded: acts fungistatically | ineffective | inhibits in vitro the growth | 1 | ineffective | ineffective | 25 | ineffective | ineffective; also recorded: no effect
